Measurements taken from patent publication US20220168309A1 (F-STAR THERAPEUTICS, INC., priority 2019, published 2022).
pIC50: −log10 of the molar value.

target: STING (Homo sapiens, UniProt Q86WV6); test: STING antagonist activity, cell-based ISG54 promoter-reporter luciferase measurement of IRF activity (THP-1 dual / RAW-ISG cells); details: Antagonist Activity of Exemplary Compounds; cell line and agonist not given
Procedure, shortened: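 THP-1 dual or RAW-ISG cells (50,000/well) pretreated 1 h with compound (10 to 0.01 uM), then stimulated with SB 11285 (30 nM or 1 μM) or 2′3′-cGAMP (10 ug/mL or lipo mixture) for 18–20 h at 37° C. IRF-driven luciferase read by Quanti-Luc; % inhibition versus untreated or DMSO wells, IC50 by curve fit.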

Chain of STING (Q86WV6 whole entry): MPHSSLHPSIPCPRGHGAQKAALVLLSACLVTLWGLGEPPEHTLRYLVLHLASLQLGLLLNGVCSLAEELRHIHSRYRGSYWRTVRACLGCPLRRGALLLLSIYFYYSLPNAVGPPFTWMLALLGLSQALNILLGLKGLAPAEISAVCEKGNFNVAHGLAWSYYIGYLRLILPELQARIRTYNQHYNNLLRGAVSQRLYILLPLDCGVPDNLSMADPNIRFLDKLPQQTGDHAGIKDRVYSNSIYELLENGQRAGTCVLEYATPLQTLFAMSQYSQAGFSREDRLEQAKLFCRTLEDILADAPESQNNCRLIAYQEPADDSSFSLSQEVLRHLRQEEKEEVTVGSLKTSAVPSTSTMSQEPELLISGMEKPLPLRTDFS

| SMILES | pIC50 |
| --- | --- |
| COC(=O)CCCCCCCCCCCCCCCn1cnc2nc(Cl)nc(Cl)c21 [Compound 6] | 6.00 to 9.00 |
| CCN(CC)c1nc2nc(Cl)nc(Cl)c2n1CCCCCCCCCCCCCCCC(=O)OC [Compound 117, methyl 16-(2,6-dichloro-8-(diethylamino)-7H-purin-7-yl)hexadecanoate] | 5.00 to 5.30 |

same assay, conditions: Antagonist Activity of Exemplary Compounds; cell line and agonist not given; read-out: IC50

| SMILES | pIC50 |
| --- | --- |
| COC(=O)CCCCCCCCCCCCCCCn1cnc2c(Cl)nc(NC(C)=O)nc21 [Compound 47, methyl 16-(2-acetamido-6-chloro-9H-purin-9-yl)hexadecanoate] | < 4.70 |
| Cc1nc2nc(Cl)nc(Cl)c2n1CCCCCCCCCCCCCCCC(=O)OC(C)C [Compound 79, isopropyl 16-(2,6-dichloro-8-methyl-7H-purin-7-yl)hexadecanoate] | 6.00 to 9.00 |
| Cc1nc2nc(Cl)nc(S(=O)(=O)C(C)C)c2n1CCCCCCCCCCCCCCCCO [Compound 111, 16-(2-chloro-6-(isopropylsulfonyl)-8-methyl-7H-purin-7-yl)hexadecan-1-ol] | 6.00 to 9.00 |
| [2H]C([2H])([2H])OC(=O)CCCCCCCCCCCCCCCn1c(C)nc2nc(Cl)nc(S(=O)(=O)C(C)C)c21 [Compound 160, Methyl-d3 16-(2-chloro-6-(isopropylsulfonyl)-8-methyl-7H-purin-7-yl)hexadecanoate] | 6.00 to 9.00 |
| CNc1nc(Cl)nc2ncn(CCCCCCCCCCCCCCCC(=O)OC)c12 [Compound 23, methyl 16-(2-chloro-6-(methylamino)-7H-purin-7-yl)hexadecanoate] | < 4.70 |
| OCCOCCOCCOCCn1cnc2nc(Cl)nc(Cl)c21 [Compound 48, 2-(2-(2-(2-(2,6-dichloro-7H-purin-7-yl)ethoxy)ethoxy)ethoxy)ethan-1-ol] | 5.30 to 6.00 |
| Cc1nc2nc(Cl)nc(Cl)c2n1CCCCCCCCCCCCCCCC(=O)O [Compound 72, 16-(2,6-dichloro-8-methyl-7H-purin-7-yl)hexadecanoic acid] | 4.70 to 5.00 |
| COC(=O)CCCCCCCCCCCCCCCn1c(-c2ccccc2)nc2nc(Cl)nc(Cl)c21 [Compound 71, methyl 16-(2,6-dichloro-8-phenyl-7H-purin-7-yl)hexadecanoate] | 5.30 to 6.00 |
| OCCCCCCCCCCCCCCCCn1cnc2nc(Cl)nc(Cl)c21 [Compound 25, 16-(2,6-dichloro-7H-purin-7-yl)hexadecan-1-ol] | 6.00 to 9.00 |
| COC(=O)CCCC(=O)N1CNc2nc(Cl)nc(Cl)c21 [Compound 80, methyl 5-(2,6-dichloro-8,9-dihydro-7H-purin-7-yl)-5-oxopentanoate] | < 4.70 |
| O=C(O)CCCCCCCCCCCCCCCn1cnc2nc(Cl)nc(O)c21 [Compound 10, 16-(2-chloro-6-hydroxy-7H-purin-7-yl)hexadecanoic acid] | < 4.70 |
| CCCCCCCCCCCCCCC(C(=O)O)n1cnc2c(Cl)nc(Cl)nc21 (stereo not shown) [Compound 16] | 4.70 to 5.00 |
| CC1Nc2nc(Cl)nc(S(=O)(=O)C(C)C)c2N1CCCCCCCCCCCCCCCCO (stereo not shown) [Compound 112, 16-(2-chloro-6-(isopropylsulfonyl)-8-methyl-8,9-dihydro-7H-purin-7-yl)hexadecan-1-ol] | 5.30 to 6.00 |
| Cc1nc2nc(Cl)nc(S(=O)(=O)C(C)C)c2n1CCCCCCCCCCCCCCCC(=O)O [Compound 139, 16-(2-chloro-6-(isopropylsulfonyl)-8-methyl-7H-purin-7-yl)hexadecanoic acid] | 6.00 to 9.00 |
| Cc1nc2nc(Cl)nc(S(=O)(=O)CCO)c2n1CCCCCCCCCCCCCCCC(=O)OC(C)C [Compound 146, isopropyl 16-(2-chloro-6-((2-hydroxyethyl)sulfonyl)-8-methyl-7H-purin-7-yl)hexadecanoate] | 6.00 to 9.00 |
| Cc1nc2nc(Cl)nc(S(=O)(=O)C(C)C)c2n1CCCCCCCCCCCCCCCC(=O)OC[C@H]1COC(C)(C)O1 [Compound 132, (R)-(2,2-dimethyl-1,3-dioxolan-4-yl)methyl 16-(2-chloro-6-(isopropylsulfonyl)-8-methyl-7H-purin-7-yl)hexadecanoate] | 6.00 to 9.00 |
| CC(=O)N1CCC(Cn2cnc3nc(Cl)nc(Cl)c32)CC1 [Compound 68, 1-(4-((2,6-dichloro-7H-purin-7-yl)methyl)piperidin-1-yl)ethan-1-one] | 5.00 to 5.30 |

| SMILES | pIC50 |
| --- | --- |
| O=P(O)(O)OCCCCCCCCCCCCCCCCn1cnc2nc(Cl)nc(Cl)c21 [Compound 88, 16-(2,6-dichloro-7H-purin-7-yl)hexadecyl dihydrogen phosphate] | < 4.70 |
| COC(=O)CCCCCCCCCCCCCCn1c(C)nc2nc(Cl)nc(S(=O)(=O)C(C)C)c21 [Compound 162, Methyl 15-(2-chloro-6-(isopropylsulfonyl)-8-methyl-7H-purin-7-yl)pentadecanoate] | 6.00 to 9.00 |
| COC(=O)CCCCCCCCCCCCCCCn1c(C)nc2nc(Cl)nc(Cl)c21 [Compound 29, methyl 16-(2,6-dichloro-8-methyl-7H-purin-7-yl)hexadecanoate] | 6.00 to 9.00 |
| COC(=O)CCCCCO[C@@H]1CCN(CCCCCCn2c(C)nc3nc(Cl)nc(Cl)c32)C1 [Compound 130] | 6.00 to 9.00 |
| Cc1nc2nc(Cl)nc(S(=O)(=O)C(C)C)c2n1CCCCCCCCCCCCCCCC(=O)N1CCOCC1 [Compound 145, 16-(2-chloro-6-(isopropylsulfonyl)-8-methyl-7H-purin-7-yl)-1-morpholinohexadecan-1-one] | 6.00 to 9.00 |
| Cc1nc2nc(Cl)nc(SC(C)C)c2n1CCCCCCCCCC[N+]1([O-])CCOCC1 [Compound 129, 4-(10-(2-chloro-6-(isopropylthio)-8-methyl-7H-purin-7-yl)decyl)morpholine 4-oxide] | < 4.70 |
| COC(=O)C(CCC(C(=O)OC)n1cnc2nc(Cl)nc(Cl)c21)n1cnc2nc(Cl)nc(Cl)c21 (stereo not shown) [Compound 57, dimethyl 2,5-bis(2,6-dichloro-7H-purin-7-yl)hexanedioate] | 5.30 to 6.00 |
| COC(=O)CCCCCO[C@@H]1CCN(CCCCCCn2c(C)nc3nc(Cl)nc(S(=O)(=O)C(C)C)c32)C1 [Compound 143, (3R)-1-(6-(2-chloro-6-(isopropylsulfonyl)-8-methyl-7H-purin-7-yl)hexyl)-3-((6-methoxy-6-oxohexyl)oxy)pyrrolidin-1-ium chloride] | 5.30 to 6.00 |
| COC(=O)[C@@H](NC(=O)CCCCCCCCCCCCCCCn1c(C)nc2nc(Cl)nc(S(=O)(=O)C(C)C)c21)C(C)C [Compound 148, methyl (16-(2-chloro-6-(isopropylsulfonyl)-8-methyl-7H-purin-7-yl)hexadecanoyl)-L-valinate] | 6.00 to 9.00 |
| Cc1nc2nc(Cl)nc([S+]([O-])C(C)C)c2n1CCCCCCCCCCN1CCOCC1 (stereo not shown) [Compound 136, 4-(10-(2-chloro-6-(isopropylsulfinyl)-8-methyl-7H-purin-7-yl)decyl)morpholine] | 6.00 to 9.00 |
| Cc1nc2c(Cl)nc(Cl)nc2n1CCCCCCCCCCCCCCCc1nnnn1C [Compound 100, 2,6-dichloro-8-methyl-9-(15-(1-methyl-1H-tetrazol-5-yl)pentadecyl)-9H-purine] | 5.00 to 5.30 |
| COC(=O)CCCCCCCCCCCCCCCn1cnc2nc(Cl)ncc21 [Compound 2] | 4.70 to 5.00 |
| Cc1nc2nc(Cl)nc(S(=O)(=O)C(C)C)c2n1CCCCCCCCCCCCCCCC(=O)OC[C@@H]1COC(C)(C)O1 [Compound 134, (S)-(2,2-dimethyl-1,3-dioxolan-4-yl)methyl 16-(2-chloro-6-(isopropylsulfonyl)-8-methyl-7H-purin-7-yl)hexadecanoate] | 6.00 to 9.00 |
| Cc1nc2nc(Cl)nc(Cl)c2n1CCCCCCCCCCCCCCCC(=O)OCC(C)O (stereo not shown) [Compound 98, 2-hydroxypropyl 16-(2,6-dichloro-8-methyl-7H-purin-7-yl)hexadecanoate] | 5.30 to 6.00 |
| COC(=O)CCCCCn1cnc2nc(Cl)nc(Cl)c21 [Compound 31, methyl 6-(2,6-dichloro-7H-purin-7-yl) hexanoate] | 5.30 to 6.00 |
| COC(=O)CCCCCCCCCCCCCCCn1cnc2nc(Cl)nc(S(C)(=O)=O)c21 [Compound 39, methyl 16-(2-chloro-6-(methylsulfonyl)-7H-purin-7-yl) hexadecanoate] | < 4.70 |
| COC(=O)CCCCCCCCCCCCCCCn1cnc2nc(Cl)nc(O)c21 [Compound 11, methyl 16-(2-chloro-6-hydroxy-7H-purin-7-yl)hexadecanoate] | 4.70 to 5.00 |

test system: cGAS-STING-IRF/NF-κB signaling pathway; test: Inhibition of dsDNA-induced cGAS-STING-IRF/NF-κB signaling; type: cell-based; details: not given
Method: (§1) Evaluation of activity of compounds in THP-1 cells for their inhibition of STING, LPS, ppp-dsRNA & Poly IC induction: THP-1 cells were treated with different concentrations (10 uM to 0.01 uM) of Compounds for 1 h followed by STING/TLR3/TLR4/RIG-I/TLR7/9 activation by corresponding agonists. Lipofectamine (LTX) was used along with dsRNA, 2′-3′cGAMP & VACV-70. The cells were then incubated for 20 hours @ 37° C. before measuring IRF activation by using Quanti-Luc. The % inhibition was calculated as 100-[(luminescence of COI treated well/luminescence of non COI treated well)/100]×100. Cytotoxicity was measured by using Cell Titer Glo.

| SMILES | inhibition of dsDNA-induced cGAS-STING-IRF/NF-κB signaling pathway |
| --- | --- |
| COC(=O)CCCCCCCCCCCCCCCn1cnc2nc(Cl)nc(Cl)c21 [Compound 6] | weakly inhibits |

test system: RIG-I-IRF/NF-κB signaling pathway; test: Inhibition of 3p-hpRNA-induced RIG-I-IRF/NF-κB signaling; type: cell-based; details: not given
Method: as §1

| SMILES | inhibition of 3p-hpRNA-induced RIG-I-IRF/NF-κB signaling pathway |
| --- | --- |
| COC(=O)CCCCCCCCCCCCCCCn1cnc2nc(Cl)nc(Cl)c21 [Compound 6] | weakly inhibits |

test system: TLR7/9 signaling pathways; test: Effect on TLR7/9 signaling; type: cell-based; details: not given
Method: as §1

| SMILES | effect on TLR7/9 signaling pathways |
| --- | --- |
| COC(=O)CCCCCCCCCCCCCCCn1cnc2nc(Cl)nc(Cl)c21 [Compound 6] | does not affect |

test system: TLR4/NF-κB activation; test: LPS-induced TLR4/NF-κB activation in RAW-WT cells; type: cell-based; details: not given

| SMILES | inhibition of LPS-induced TLR4/NF-κB activation |
| --- | --- |
| COC(=O)CCCCCCCCCCCCCCCn1cnc2nc(Cl)nc(Cl)c21 [Compound 6] | seems to inhibit |
